# Tests used:
# Format in all cases: physicochemical
# [1] = Photodegradation of solid SkQ1 bromide under natural day/night illumination
# Method: As a result, SkQ1 was stored in light protective packaging or a dark glass container. The crystalline form of SkQ1 bromide as prepared in Example 2C and was tested by placing 50 mg portions at room temperature in transparent plastic vials, under conditions of natural change of day and night illumination with indirect sunlight.
# [2] = Resistance to gamma radiation (sterilization); conditions: sterilization by gamma radiation
# [3] = Stability of crystalline SkQ1 chloride and iodide compared with SkQ1 bromide; conditions: crystals obtained by the same crystallization methods
# Description: Purity and stability parameters of obtained SkQ1 Cl and SkQ I were similar to such parameters of SkQ1 bromide.
# [4] = Hygroscopicity of the isolated solid; conditions: non-crystalline solid as isolated
# Description: Hygroscopic solids are associated with numerous difficulties when attempting to use them in pharmaceutical compositions, including low stability and difficulty in handling. Crystallization of halide salts of SkQ1 by using a number of solvents, individually or in combination, was attempted.
# [5] = Solubility in water and in protic solvents (observations during crystallization work)
# Method: Attempts to reduce the concentration of ethanol and to use isopropanol were undertaken. SkQ1 bromide in an amount of 177 mg was added to an ethanol (1V)-ethyl acetate (5V) mixture. In another experiment, SkQ1 in an amount of 178 mg was added to an isopropanol (1V)-ethyl acetate (5V) mixture. […] To each of the above solutions, 5V ml of MTBE was added, initially oiling out the supersaturated solution. After leaving the solution overnight at room temperature, crystals were formed. This process with varying amounts of ethanol (from 0.274-0.574 V) led to similar results of solid formation after MTBE addition. Similarly, ethyl acetate was increased to 10V, with similar results of fine solid formation only after adding MTBE, but with lower yields. When ethanol solvent amounts were increased ton 1.174 V, crystallization occurred after adding MTBE, but yields were low.
smiles,measurement,setting,value
"CC1=C(C)C(=O)C(CCCCCCCCCC[P+](c2ccccc2)(c2ccccc2)c2ccccc2)=CC1=O [Amorphous SkQ1 bromide, 2,3-dimethyl-1,4-benzoquinone-5-decyl-triphenylphosphonium bromide, reference compound]",photosensitivity,"[1]; amorphous form, stored in light protective packaging or dark glass container",photosensitive
same,stability to gamma radiation,[2]; listed as oil form,degraded
CC1=C(C)C(=O)C(CCCCCCCCCC[P+](c2ccccc2)(c2ccccc2)c2ccccc2)=CC1=O [SkQ1 Cl],stability parameters relative to SkQ1 bromide,[3],similar
"CC1=C(C)C(=O)C(CCCCCCCCCC[P+](c2ccccc2)(c2ccccc2)c2ccccc2)=CC1=O [SkQ1 bromide, 2,3-dimethyl-1,4-benzoquinone-5-decyl-triphenylphosphonium bromide]",hygroscopicity,[4],hygroscopic
same,hygroscopicity,[4]; listed as SkQ1 bromide salt,highly hygroscopic
same,solubility in protic solvents,"[5]; ethanol (1V)- or isopropanol (1V)-ethyl acetate (5V) mixture, room temperature, 0.5 hours",highly soluble
same,solubility in water,[5]; water,sparingly soluble
"CC1=C(C)C(=O)C(CCCCCCCCCC[P+](c2ccccc2)(c2ccccc2)c2ccccc2)=CC1=O [crystalline form of SkQ1 bromide, 2,3-dimethyl-1,4-benzoquinone-5-decyl-triphenylphosphonium bromide]",sample photodegradation,"[1]; 50 mg portions, room temperature, transparent plastic vials, natural day and night illumination with indirect sunlight, analyzed at 6 hours, 4 days, 1 month and 2 months",no degradation was found in any of the samples
same,"resistance to degradation, in particular photodegradation, compared to the previously known amorphous form",[1]; crystalline versus amorphous form,more resistant to degradation
same,stability to gamma radiation,[2]; listed as crystalline SkQ1,resistant to gamma radiation
